Measurements taken from US20080207928A1 (priority 2005, published 2008).
Like-named read-outs stand apart in the source and are kept apart here.

Experiments:
[1] = target: T1, human recombinant CB1 (Homo sapiens, UniProt P21554); assay: CB1R radioligand binding, membranes from HEK293 cells over-expressing human recombinant CB1
T1 construct: purchased Perkin-Elmer; host or cells: HEK293
Procedure: (§1) Flavonoid compounds of general formula (I) above were evaluated for their ability to activate Cannabinoid Receptor 1 (CBLR) and Cannabinoid Receptor 2 (CB2R).
CB1R experiments were performed using membranes from HEK293 cells over-expressing human recombinant CB1, as described by the manufacturer (Perkin-Elmer) and using [3H]CP-55,490 as the radioligand.
(§2) Data of active compounds are expressed in Ki (mM) and are means±SEM of n=3 determinations.
(§3) The values that are stated for each of the compounds is an EC50 value. This is defined as the molar concentration of an agonist, which produces 50% of the maximum possible response for that agonist. The values documented are in micromolar units.

[2] = target: T2, human recombinant CB2 (Homo sapiens, UniProt P34972); assay: CB2R radioligand binding, membranes from HEK293 cells over-expressing human recombinant CB2
T2 construct: purchased Perkin-Elmer; host or cells: HEK293
T2 sequence (P34972 whole entry): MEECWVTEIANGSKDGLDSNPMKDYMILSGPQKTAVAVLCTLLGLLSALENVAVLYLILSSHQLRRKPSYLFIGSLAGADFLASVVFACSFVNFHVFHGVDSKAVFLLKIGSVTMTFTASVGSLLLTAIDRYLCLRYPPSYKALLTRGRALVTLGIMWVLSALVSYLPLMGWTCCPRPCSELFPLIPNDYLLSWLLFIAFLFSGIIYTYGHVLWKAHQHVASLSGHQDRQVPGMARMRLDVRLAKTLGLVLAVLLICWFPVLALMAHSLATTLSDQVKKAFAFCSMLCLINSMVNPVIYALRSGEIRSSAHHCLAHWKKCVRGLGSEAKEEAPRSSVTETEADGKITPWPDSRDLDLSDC
Procedure: as §1
CB2R experiments were performed using membranes from HEK293 cells over-expressing human recombinant CB2, as described by the manufacturer (Perkin-Elmer), and using [3H]CP-55,495 as the radioligand.
as §2, §3

T1 sequence (P21554 whole entry): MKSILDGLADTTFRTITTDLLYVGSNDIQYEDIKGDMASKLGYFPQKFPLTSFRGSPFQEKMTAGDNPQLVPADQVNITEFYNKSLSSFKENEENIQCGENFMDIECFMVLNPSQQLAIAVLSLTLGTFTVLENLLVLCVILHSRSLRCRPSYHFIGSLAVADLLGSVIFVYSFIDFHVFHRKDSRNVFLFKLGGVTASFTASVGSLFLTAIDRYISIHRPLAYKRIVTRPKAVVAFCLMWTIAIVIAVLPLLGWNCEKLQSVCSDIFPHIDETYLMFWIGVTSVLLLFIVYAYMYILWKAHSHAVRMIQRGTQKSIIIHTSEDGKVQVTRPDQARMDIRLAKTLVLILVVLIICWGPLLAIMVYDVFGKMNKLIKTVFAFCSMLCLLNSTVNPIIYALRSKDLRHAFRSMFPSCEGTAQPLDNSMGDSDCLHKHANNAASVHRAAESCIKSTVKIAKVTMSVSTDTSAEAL

`COc1cc(O)c(CC=C(C)C)c2c1C(=O)C[C@@H](c1ccc(O)cc1)O2` [Example 1, 4′, 7-dihydroxy-5-methoxy-8-prenylflavanone] showed an EC50 [1] of 7.5 µM and an EC50 [2] greater than 25 µM.

In the case of `O=C1C[C@@H](c2ccccc2)Oc2cc(O)cc(O)c21` [Example 3, 5,7-dihydroxyflavanone], the EC50 ([1]; HEK293 membranes, [3H]CP-55,490 radioligand, means of n=3, read-out: CB1R Activity) is reported as greater than 25 µM and the EC50 ([2]; HEK293 membranes, [3H]CP-55,495 radioligand, means of n=3, read-out: CB2R Activity) is reported as 15.5 µM.

With `COc1cc(O)c2c(c1)O[C@H](c1ccccc1)CC2=O` [Example 4, 5-hydroxy-7-methoxyflavanone] the EC50 [1] was 0.8 µM, the “activation of Cannabinoid Receptor 1 (statement in words)” value [1] was “can activate both” and the EC50 [2] was 9.1 µM. For the same compound, the “activation of Cannabinoid Receptor 2 (statement in words)” value [2] was “can activate both”.

Compound `CC(C)=CCc1c(O)cc(O)c2c1O[C@H](c1ccc(O)cc1)CC2=O` [Example 2, 4′,5,7-trihydroxy-8-prenylflavanone] has an EC50 [1] of 4.6 µM and an EC50 [2] greater than 25 µM.

With `COc1cc(O)c2c(c1)O[C@H](c1ccc(O)cc1)CC2=O` [Example 5, 5,4′-dihydroxy-7-methoxyflavanone] the EC50 [1] was 3.8 µM and the EC50 [2] was greater than 25 µM.
